Tests used:
osteoblasts = test: Histomorphometric bone analysis, EL4 study (Example 9); assay type: in vivo, mice
Description: Histomorphometric analyses were performed on vertebral column specimens collected from 2 months old mice using undecalcified sections using the osteomeasure analysis system (Osteometrics). Lumbar vertebrae were dissected, fixed for 24 hours in 10% formalin, dehydrated in graded ethanol series, and embedded in methyl methacrylate resin according to standard protocols (Chappard et al. (1987); Parfitt et al. (1987)).
Bone formation rate (BFR) was analyzed by the calcein double-labeling method. Calcein (Sigma) was dissolved in calcein buffer (0.15 M NaCl, 2% NaHCO3) and administered by an intraperitoneal injection of 25 μg/g body weight, 6 days and 2 days before sacrificing the animals. In experiments evaluating survival rates of animals, bone formation rate was not calculated due to the unknown time of death. Unstained 4-μm sections were used for BFR measurements.
For the analysis of parameters of osteoblast and osteoclast, 4-μm sections were stained with toluidine blue and tartrate-resistant acid phosphatase (TRAP), respectively. Type I collagen content and bone volume over trabecular volume (BV/TV) were analyzed using 7-μm sections by Von Gieson and Von Kossa staining […] respectively in undecalcified sections. Images were taken using a 10× objective on a Leica microscope outfitted with camera. Six to ten animals were analyzed for each group.
(§1) Mice were treated orally with LP-533401 (25 or 200 mg per kg of body weight per day) or vehicle. Treatments started 15 days before malignant cell injections in all sets of experiments, and continued for the indicated periods of time. LP-533401 was dissolved in polyethylene glycol (PEG) and 5% dextrose or 2.5% glucose (Sigma), and given daily by oral gavage. Mice treated with vehicle were administered, in the same way as LP533401, a solution of PEG and 5% dextrose or 2.5% glucose, daily, by oral gavage.
Bioluminescence imaging, luciferase intensity measurement, hind-limb paralysis, blood cell counts, bone mass, osteoblast number, bone formation rate and survival were determined as previously described in Examples 2, 3, and 5-7.

[1] = tested on: EL4-GFP-Luc lymphoma/lymphoblastic cells; test: EL4-GFP-Luc lymphoblastic leukemia mouse model, long-term oral LP-533401 treatment (Example 9); assay type: in vivo, mice
Description: 8- to 10-week-old immunocompetent male mice were inoculated with tumor cells by tail vein injection. The EL4 cell line was established from a lymphoma-induced tumor in a C57BL mouse by 9,10-dimethyl-1,2-benzanthacene. An EL4 cell line transduced with green fluorescence protein and luciferase, EL4-GFP-Luc, was injected via the lateral tail vein of the B6(Cg)-Tyrc-2J mice (500,000 cells per mouse). The EL4-GFP-Luc fusion gene was used to allow cell trafficking and tumor progression to be assessed by an in vivo imaging system.
Leukemia engraftment and progression was monitored using the Xenogen IVIS-200 System (IVIS® imaging system, Xenogen Corporation), an in vivo imaging technology platform that allows non-invasive visualization, and tracking of cellular and genetic activity within a living organism. The system consists of a CCD camera mounted on a light-tight specimen chamber, a camera controller, a cryogenic cooler, a fluorescence light source and a computer system for data acquisition and analysis. The system is capable of imaging bioilluminescence and fluorescence in living animals.
In this study, since luminescence was being detected, luciferin as a substrate of luciferase was administered to the mice. The mice were monitored using the in vivo imaging system twice per week. Mice were anaesthetized using isoflurane, and then were injected intraperitoneally with luciferin (0.15 mg per g body weight) 10 minutes before the detection point. Mice were imaged using the in vivo system, setting the exposure time to 1 minute. Bioilluminescence intensity was recorded and counted.
Blood was collected by cardiac puncture in EDTA (CBCs and blood smears) or non-EDTA (serum) coated tubes. For serum preparation, blood was kept at room temperature for 15 minutes and centrifuged at 15,700 g for 10 min at 4° C. Serum osteocalcin was measured using the Osteocalcin IRMA kit (Immutopics).
Time-to-event analysis was used to assess two endpoints of interest, death and paralysis. The day which mice were inoculated with tumor cells was considered Day 1. Animals were followed up to 62 days. […] Kaplan-Meier curves were generated to illustrate time to death and paralysis, stratified by group status. Statistical significance of the between-group difference in the median time-to-endpoint was assessed by the log-rank test. Statistical analyses were performed using the EXCEL-XLSTAT and SAS softwares0. A P value less than 0.05 was considered statistically significant.
Mice injected with the EL-4 cell line, EL4-GFP-Luc, were used as described in Example 2. The imaging system describe in Example 2 was used.
as §1
The mice were divided into four groups of mice: • Mice with no leukemia treated with a vehicle, i.e., non-leukemic-vehicle-treated (“WT”); • Mice with no leukemia treated with LP533401, i.e., non-leukemic-LP-533401-treated (“NL-LP”); • Mice with leukemia treated with a vehicle, i.e., leukemic-vehicle-treated (“Leuk-veh”); and • Mice with leukemia treated with LP-533401, leukemic-LP533410-treated (“Leuk-LP”).
Treatment of the non-leukemic mice with the vehicle or LP-533401 lasted a total of 35 days and treatment of the leukemic animals with a vehicle or LP-533401 continued until the day mice were sacrificed, which occurred at different time points, depending upon the presence of signs of illness. […]

[2] = LP-533401 25 or 200 mg/kg/day oral
[3] = among ten leukemic mice treated
[4] = leukemic mice (EL4), peripheral blood

Nc1nc(OC(c2ccc(-c3cccc(F)c3)cc2)C(F)(F)F)cc(-c2ccc(C[C@H](N)C(=O)O)cc2)n1 (stereo partly drawn) [LP-533401] was tested, and the bone resorption (osteoblasts; EL4 study) was “not affected”, the “increase in bone formation rate” value (osteoblasts; [2]) was 30% and the “increase in bone mass” value (osteoblasts; [2]) was 30%. The “increase in osteoblast numbers” value (osteoblasts; [2]) was 30%, the “leukemia-induced decrease in osteoblast numbers, bone formation rate and trabecular bone volume” value (osteoblasts; leukemic mice (EL4)) was “inhibited the decrease in osteoblast numbers, bone formation rate, and trabecular bone volume” and the “number of treated leukemic mice that cleared their leukemia” value [1, 3] was 2. The “number of treated leukemic mice that never developed leukemia” value [1, 3] was 2, the “number of treated leukemic mice that developed leukemia at a late stage and then recovered” value ([1]; among ten leukemic mice treated, day 28) was 1 and the “animals that developed hind-limb paralysis” value ([1]; leukemic mice (EL4)) was 38%. For the same compound, the reticulocyte numbers ([1]; leukemic mice (EL4)) was “prevented leukemia induced suppression of reticulocyte numbers”, the “tumor burden by bioluminescence imaging / luciferase intensity” value ([1]; leukemic mice (EL4)) was “decreased tumor burden” and the “anemia (red blood cells, hemoglobin, hematocrit)” value [1, 4] was “ameliorated anemia”. For the same compound, the “leukemia-associated increase in WBCs” value [1, 4] was “diminished”, the “neutrophils, monocytes and lymphocytes” value [1, 4] was “restored to normal numbers” and the overall survival ([1]; mice with leukemia (EL4)) was “significantly longer overall survival”.
